The text below walks through data of EP0137900B1, “Bis-platinum complexes as antitumor agents” (priority 1983, dated 1985).

Data set [1] can be described thus: Solubility (water, organic solvents, 1% NaHCO3, basic solutions). Conditions: result in words.
For data set [2] the following is noted: 1% nahco3.
The subject of data set [3] is murine tumor line L1210 leukemia. The data set can be described thus: Antitumor screen against murine L1210 leukemia implanted in mice. It is filed as in vivo, CDF1 mice. Conditions: for Percent Increase in Lifespan: start 24 hours after inoculation of 1 x 10^6 L1210 cells in CDF1 mice; for toxic dose: L1210-bearing mice.
For data set [4] the following is noted: in water; cited from earlier work.

As to “5,5'-carbonylbistrimellito bis [(1,2-diaminocyclohexane)platinum(II)1 [Example 6]”, in data set [1], the “solubility in 1% NaHC03 solution” value is “dissolves readily”.

Regarding “benzenepentacarboxylatobis[(1,2-diaminocyclohexane) platinum(ll)] [Example 1]”, the solubility result in data set [2] is reported as “greater than 10 mg/ml”. Moreover, the “Percent Increase in Lifespan” value in data set [3] (Dose 2.5 mg/kg, Daily x 7, intraperitoneally, in 1% NaHCO3) is 87%; in data set [3] (Dose 2.5 mg/kg, schedule 'Drugs 1, 5 and 9' [sic], intraperitoneally) it was 21%; in data set [3] (Dose 5.0 mg/kg, Daily x 7, intraperitoneally, in 1% NaHCO3), 117%; in data set [3] (Dose 5.0 mg/kg, schedule 'Drugs 1, 5 and 9' [sic], intraperitoneally) it was 43%; in data set [3] (Dose 10.0 mg/kg, Daily x 7, intraperitoneally, in 1% NaHCO3), 61%; in data set [3] (Dose 10.0 mg/kg, schedule 'Drugs 1, 5 and 9' [sic], intraperitoneally), 135%. The “Percent Increase in Lifespan” value in data set [3] (Dose 20.0 mg/kg, schedule 'Drugs 1, 5 and 9' [sic], intraperitoneally) turned out to be 193%. Also, the toxic dose was 20 mg/kg in data set [3] (daily x 7 schedule) and 40 mg/kg in data set [3] (days 1, 5, 9 schedule). The “activity against the experimental murine tumor line L1210 leukemia” value in data set [3] (dose range 2.5-20 mg/kg, result in words) was “active”.

For the substance cis-[Pt(NH3)2Cl2] [Cisplatin], in data set [4], the water solubility entry is on record as “about 1 mg/ml”.
